Data as given in patent US8003390B2, “Responses to singlet oxygen” (Wisconsin Alumni Research Foundation, priority 2005, dated 2011).
Where two headings read alike, the source gives them in different places.

Tests used:
[1] = system: σ^E-dependent rpoE P1::lacZ reporter (σ^E activity); experiment: Differential rate of β-galactosidase synthesis from the σ^E-dependent rpoE P1::lacZ reporter fusion; assay type: cell-based, Rhodobacter sphaeroides; conditions: for Rate (differential rate of β-galactosidase synthesis from the σ^E-dependent rpoE::lacZ fusion): WT cells, Aero (30% O2)
Experimental: Bacterial strains and plasmids: R. sphaeroides 2.4.1 (wild-type, WT), R. sphaeroides with a mutant ChrR (ΔChrR) (chrR-1::drf; see Newman et al., supra.) or R. sphaeroides with both a mutant σ^E (Δσ^E) and ΔChrR (TF18; rpoEchrR-1::drf, see Schilke B & Donohue T, “ChrR positively regulates transcription of the Rhodobacter sphaeroides cytochrome c2 gene,” J. Bacteriol. 177:1929-1937 (1995), incorporated herein by reference as if set forth in its entirety) were grown at 30° C. in Sistrom's succinate-based minimal medium A. Media used for growth of strains containing low-copy lacZ reporter plasmids was supplemented with 25 μg/ml kanamycin.
Growth conditions: For aerobic respiratory growth, 500 ml of media was bubbled with a mixture of 69% N2, 30% O2 and 1% CO2 in the dark. Conversely, for photosynthetic growth, 500 ml of media was bubbled with a mixture of 95% N2 and 5% CO2 in front of an incandescent light source (10 W/m^2 as measured with a Yellow-Springs-Kettering model 6.5A radiometer through a Corning […] filter).
(§1) To test the effects of ^1O2, photosynthetic cultures were exposed to aerobic growth conditions (69% N2, 30% O2 and 1% CO2) in the presence or in the absence of light (10 W/m^2). Where indicated, light was passed through a 1283 filter (Kopp Glass; Pittsburgh, Pa.) that impedes >99% of light at wavelengths <770 nm, but transmits >45% of light at 830 nm and >80% of light at 900 nm. When using methylene blue (Sigma-Aldrich; St. Louis, Mo.) to generate ^1O2, a final concentration of 1 μM was added to aerobic cultures in the presence or in the absence of incandescent light (10 W/m^2). To test the effects of other ROS, 0.5 mM H2O2, 1 mM diamide or 1 mM paraquat (Sigma-Aldrich) was added to aerobic cultures.
Determining promoter activity: Promoter activity was determined by measuring β-galactosidase activity from a low copy rpoE P1::lacZ reporter plasmid or a trxA::lacZ reporter plasmid. The promoter for the thioredoxin gene (trxA, −214 to +27 relative to the known transcription initiation site) was fused to lacZ and mobilized into R. sphaeroides.
β-galactosidase activity (units/ml of culture) was calculated as follows: (A420×1000)/(Cell volume in assay (ml)×Time of assay (min)). Culture density was typically monitored by measuring A600 in a BioSpec 1601 spectrophotometer (Schimatzu; Columbia, Md.). The density of cultures treated with methylene blue was monitored at 500 nm because methylene blue absorbs light between 609-668 nm. The differential rate of β-galactosidase synthesis was determined by calculating the slope from plots of enzyme activity (units/ml of culture) against optical density. All experiments were repeated a minimum of three times with differential rates of β-galactosidase synthesis typically deviating less than two-fold between experiments.

[2] = system: σ^E-dependent rpoE P1::lacZ reporter (σ^E activity); conditions: cited from earlier work
[3] = system: trxA::lacZ reporter (trx promoter); assay type: cell-based, Rhodobacter sphaeroides
Experimental: To test the effects of ^1O2, photosynthetic cultures were exposed to aerobic growth conditions (69% N2, 30% O2 and 1% CO2) in the presence or in the absence of light (10 W/m^2). Where indicated, light was passed through a 1283 filter (Kopp Glass; Pittsburgh, Pa.) that impedes >99% of light at wavelengths <770 nm, but transmits >45% of light at 830 nm and >80% of light at 900 nm. When using methylene blue (Sigma-Aldrich; St. Louis, Mo.) to generate ^1O2, a final concentration of 1 μM was added to aerobic cultures in the presence or in the absence of incandescent light (10 W/m^2). […]
Determining promoter activity: Promoter activity was determined by measuring β-galactosidase activity from a low copy rpoE P1::lacZ reporter plasmid or a trxA::lacZ reporter plasmid. […]
β-galactosidase activity (units/ml of culture) was calculated as follows: (A420×1000)/(Cell volume in assay (ml)×Time of assay (min)). Culture density was typically monitored by measuring A600 in a BioSpec 1601 spectrophotometer (Schimatzu; Columbia, Md.). The density of cultures treated with methylene blue was monitored at 500 nm because methylene blue absorbs light between 609-668 nm. The differential rate of β-galactosidase synthesis was determined by calculating the slope from plots of enzyme activity (units/ml of culture) against optical density. […]

[4] = system: R. sphaeroides Δσ^E mutant; experiment: Growth and viability of aerobically grown cells treated with methylene blue in the presence of light; assay type: cell-based, Rhodobacter sphaeroides; conditions: methylene blue + light (1O2), FIG. 3
Experimental: as §1
All experiments were initiated when cultures reached ˜2×10^8 cfu/ml to minimize light or O2 limitation to photosynthetic and aerobic cells, respectively. To measure cell viability, samples were removed, diluted and plated in media supplemented with 25 μg/ml kanamycin to select for the rpoE P1::lacZ reporter plasmid. The whole cell abundance of carotenoids was measured as described in Cohen-Bazire G, et al., “Kinetic studies of pigment synthesis by non-sulfur purple bacteria,” J. Cell Physiol. 49:25-68 (1957). […]

[5] = WT cells grown aerobically, 0.5 mM H2O2, 1 mM diamide or 1 mM paraquat, untreated = 11

## CN(C)C(=O)/N=N/C(=O)N(C)C [Diamide, diamide]
[1]; [5]
  rpoE P1::lacZ fusion (differential rate of β-galactosidase synthesis): 3
[2]
  σ^E activity upon exposure to the compound (previous work): does not increase

## OO [H2O2, hydrogen peroxide]
[1]
  Change of differential rate of β-galactosidase synthesis from the σ^E-dependent reporter fusion compared to untreated cells: no more than 1.2 fold
  rpoE P1::lacZ fusion (differential rate of β-galactosidase synthesis): 13
[3]
  trxA::lacZ fusion (differential rate of β-galactosidase synthesis): 220

## C[n+]1ccc(-c2cc[n+](C)cc2)cc1 [Paraquat, paraquat]
[1]; [5]
  rpoE P1::lacZ fusion (differential rate of β-galactosidase synthesis): 6
[1]; aerobic WT cells, 0.5 mM H2O2 or 1 mM paraquat
  Change of differential rate of β-galactosidase synthesis from the σ^E-dependent reporter fusion compared to untreated cells: decreased
[3]; WT cells grown aerobically, 0.5 mM H2O2 or 1 mM paraquat, untreated = 185
  trxA::lacZ fusion (differential rate of β-galactosidase synthesis): 450

## CN(C)c1ccc2nc3ccc(=[N+](C)C)cc-3sc2c1 [methylene blue]
[4]
  Effect on Δσ^E mutant when carotenoids are low (OD500nm, cfu/ml): bacteriocidal
[1]; WT aerobic cells, 1 μM methylene blue, light and O2
  Increase of differential rate of β-galactosidase synthesis from rpoE P1::lacZ compared to aerobic cells grown without methylene blue: ~20 fold
[1]; WT aerobic cultures, methylene blue in the dark
  Increase of rate of β-galactosidase synthesis from rpoE P1::lacZ: two-fold
[1]; 1 μM methylene blue + light (generates 1O2)
  Rate (differential rate of β-galactosidase synthesis from the σ^E-dependent rpoE::lacZ fusion): 151
[1]; 1 μM methylene blue, dark (no 1O2)
  Rate (differential rate of β-galactosidase synthesis from the σ^E-dependent rpoE::lacZ fusion): 8
